Source: patent publication US20130137767A1, “Methods and Compositions for Treating Arthritis with Docosahexaenoic Acid” (DSM IP ASSETS B.V., priority 2010, published 2013)

Tested on: Collagen-Induced Arthritis (CIA)
Assay: Collagen-Induced Arthritis, EE vs. TG (Example 2): clinical arthritis severity and incidence
Format: in vivo, Male DBA/1O1aHsd mice
Conditions: for incidence of disease: day 45
Source text: The anti-arthritic activity of DHA, DHA/DPAn6 and DHA/EPA, administered as EE or triglyceride oils (TG), in a chronic mouse model of inflammation, Collagen-Induced Arthritis (CIA), was studied. Methods used in this study were similar to those described in Example 1 (CIA-EE Study). Study groups consisted of: Male DBA/1O1aHsd mice were enrolled, quarantined, and feed study diets following the protocols described in Example 1 (CIA-EE Study). EE and TG oils were blended into the base diet to provide 2500 mg/kg PUFA per day (HED approximately 12 g/day). A single dose of PUFA per day (HED approximately 5 g/day). The 1000 mg/kg DHA-EE dose was equivalent to the amount of DHA administered in the DHA/EPA-EE blend. The fat blend the 2500 mg/kg EE diets consisted of approximately: 1 part flax, 12 parts HCOC and 23 parts HO-SAFF; 1000 mg/kg EE diet: 1 part flax, 12 parts HCOC and 32 parts HO-SAFF; 2500 mg/kg DHASCO® oil diet: 1 part flax, 8 parts HCOC, 17 parts HO-SAFF and 15 parts soybean oil; 2500 mg/kg DHA-S oil diet: 1 part flax, 5 parts HCOC, 16 parts HO-SAFF and 6 parts soybean oil. 2500 mg/kg DHA/EPA (Nordic Naturals fish oil) diet: 1 part flax, 21 parts HCOC, 18 parts HO-SAFF and 13 parts soybean oil. The monounsaturate control animals received a fat blend of 1 part flax, 7 parts HCOC and 25 parts HO-SAFF. All study diets provided a total of 7% fat. Animals in the No Disease control and Dexamethasone groups were fed the diet containing OA-EE. Mice received collagen injections on day 0 and day 21, as described previously. Blood samples were collected at day 21 and day 45. At day 45, joints were collected for histology and pathology. Data was analyzed and compared by one-way ANOVA using the Bonferroni post-test to compare treatment groups to respective placebo control and to make comparisons between treatment groups (GraphPad, Prism, Version 4.0). Effects were considered to be statistically significant at p<0.05. Arthritis severity was assessed from day 18 to 45; a score of 0 represented an animal devoid of clinical arthritis symptoms and a score of 5 represented advanced clinical arthritis. Scores from 0-5 (most severe) were assigned to each digit on the fore and hind limbs based on erythema, swelling and mobility the mean arthritis severity per animal was determined.

With `CC/C=C\C/C=C\C/C=C\C/C=C\C/C=C\C/C=C\CCC(=O)OCC` [DHA-EE] as the compound, how does the “arthritis severity score as area under the curve (AUC)” value (1000 mg/kg, days 18-45, vs OA-EE (placebo) control, FIG. 8B) read?
Its value is “significantly reduced arthritis”.

What about the “arthritis severity, comparison between treatment groups” value (2500 mg/kg PUFA, Dexamethasone 0.1 mg/kg) of the same compound?
The value was “more potent than DHA-EPA-EE”.

And the “arthritis severity score as area under the curve (AUC)” value (2500 mg/kg PUFA, days 18-45, vs monounsaturated or OA-EE (placebo) control, FIG. 8A/B)?
Its value is “significantly reduced arthritis”.

And the incidence of disease (1000 mg/kg, FIG. 9B)?
The incidence of disease was 73%.

And the incidence of disease (2500 mg/kg PUFA, FIG. 9A/B)?
Its incidence of disease is 60%.

And the arthritis severity score (days 18-45, FIG. 7A/B, dose not stated)?
Its arthritis severity score is “reduced arthritis severity”.
